Literature values as cited in patent publication US20070015719A1 (Elan Pharma International Limited, priority 2005, published 2007).

Conditions: in acidic solutions

stability: stable
Substance: 6-o-methyl erythromycin A [clarithromycin]
